# According to patent publication US7019007B2 (Syntex (U.S.A.) LLC, priority 2001, dated 2006):
# Biological target: T1, CCR-3 receptor (Homo sapiens, UniProt P51677)
# T1 construct: expressed in transfected cells; host or cells: L1.2 (murine pre-B lymphoma line) stably transfected with CCR-3
# T1 sequence (P51677 1-355): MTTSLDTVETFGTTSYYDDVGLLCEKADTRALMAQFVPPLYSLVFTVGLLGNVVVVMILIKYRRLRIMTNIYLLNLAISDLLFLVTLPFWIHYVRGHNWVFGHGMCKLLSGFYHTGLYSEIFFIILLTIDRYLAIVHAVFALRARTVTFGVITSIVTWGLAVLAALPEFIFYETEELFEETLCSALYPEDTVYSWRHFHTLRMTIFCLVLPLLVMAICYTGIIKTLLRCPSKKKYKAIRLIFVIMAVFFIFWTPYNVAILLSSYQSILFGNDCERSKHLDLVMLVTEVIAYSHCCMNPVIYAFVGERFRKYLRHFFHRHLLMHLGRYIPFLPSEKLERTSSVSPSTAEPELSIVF
# Assay: CCR-3 Receptor Binding Assay - In Vitro (inhibition of 125I eotaxin binding to CCR-3 L1.2 transfectant cells)
# Conditions: inhibition of binding of 125I-eotaxin to CCR-3 L1.2 transfectant cells, 1 hour at room temperature
# Method: The CCR-3 antagonistic activity of the compounds of the invention was determined by their ability to inhibit the binding of ^125 I eotaxin to CCR-3 L1.2 transfectant cells (see Ponath, P. D. et al., J. Exp. Med., Vol. 183, 2437–2448, (1996)).
# The assay was performed in Costar 96-well polypropylene round bottom plates. Test compounds were dissolved in DMSO and then diluted with binding buffer (50 mM HEPES, 1 mM CaCl2, 5 mM MgCl2, 0.5% bovine serum albumin (BSA), 0.02% sodium azide, pH 7.24) such that the final DMSO concentration was 2%. 25 μl of the test solution or only buffer with DMSO (control samples) was added to each well, followed by the addition of 25 μl of ^125I-eotaxin ([…]) (NEX314, New England Nuclear, Boston, Mass.) and 1.5×10^5 of the CCR-3 L1.2 transfected cells in 25 μl binding buffer. The final reaction volume was 75 μl.
# After incubating the reaction mixture for 1 hour at room temperature, the reaction was terminated by filtering the reaction mixture through polyethylenimine treated Packard Unifilter GF/C filter plate (Packard, Chicago, Ill.). The filters were washed four times with ice cold wash buffer containing 10 mm HEPES and 0.5M sodium chloride (pH 7.2) and dried at 65° C. for approximately 10 minutes. 25 μl/well of Microscint-20® scintillation fluid (Packard) was added and the radioactivity retained on the filters was determined by using the Packard TopCount®.
row,Compound,IC50 [nM]
1,CCCCNC(=O)N[C@@H]1CCC[C@H]1N1CCC(Cc2ccc(Cl)cc2)CC1,507
2,C=CCNC(=O)N[C@@H]1CCC[C@H]1N1CCC(Cc2ccc(Cl)cc2)CC1,499
3,O=C(NC1CCCCC1)N[C@@H]1CCC[C@H]1N1CCC(Cc2ccc(Cl)cc2)CC1,398
4,CC(C)NC(=O)N[C@@H]1CCC[C@H]1N1CCC(Cc2ccc(Cl)cc2)CC1,885
5,CCOC(=O)CCNC(=O)N[C@@H]1CCC[C@H]1N1CCC(Cc2ccc(Cl)cc2)CC1,729
6,"O=C(N[C@@H]1CCC[C@H]1N1CCC(Cc2ccc(Cl)cc2)CC1)C1CCCCC1 [Cyclohexanecarboxylic acid {(1R,2R)-2-[4-(4-chloro-benzyl)-piperidin-1-yl]-cyclopentyl}-amide]",2910
